This is an account of results in patent US8030083B2, “Method of analyzing protein structural affinity relationship” (Eisai R & D Management Co., Ltd., priority 2004, dated 2011).

One data set relates to CDK. To be noted: Knockaert et al.; cited from earlier work.
The target in data set [1] is T1, mitochondrial malate dehydrogenase (mMDH) (Homo sapiens, UniProt P40926).
T1 sequence (P40926 25-338): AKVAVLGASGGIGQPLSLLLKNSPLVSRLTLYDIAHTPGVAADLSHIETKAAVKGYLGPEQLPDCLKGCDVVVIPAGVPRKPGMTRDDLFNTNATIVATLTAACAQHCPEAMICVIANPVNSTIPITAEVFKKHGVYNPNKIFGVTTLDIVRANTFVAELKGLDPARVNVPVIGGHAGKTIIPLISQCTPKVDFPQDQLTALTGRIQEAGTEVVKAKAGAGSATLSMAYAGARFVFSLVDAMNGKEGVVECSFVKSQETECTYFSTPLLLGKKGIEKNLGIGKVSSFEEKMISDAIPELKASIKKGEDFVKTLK
To be noted: Knockaert et al.; cited from earlier work.

A further data set can be described thus: water solubility. The class given is physicochemical.

In the case of `O=C1Cc2c([nH]c3ccccc23)-c2ccccc2N1` [paullone], the “inhibition of CDK” value with CDK is listed as “inhibitor”. In addition, the “inhibition of mMDH activity” value in data set [1] is recorded as “inhibits mMDH activity with certainty”. On to `NS(=O)(=O)c1ccc(S(=O)(=O)Nc2cccc3c(Cl)c[nH]c23)cc1` [E7070], for which the water solubility result in the data set “water solubility” is “poor in water solubility”.
